This is an account of results in ChEMBL document CHEMBL1145498, “A systematic interaction map of validated kinase inhibitors with Ser/Thr kinases” (Proc Natl Acad Sci U S A, 2007).

The target of assay [1] is Serine/threonine-protein kinase Nek6 (Homo sapiens) (UniProt Q9HC98).
The target in assay [2] is Ribosomal protein S6 kinase alpha-3 (Homo sapiens) (UniProt P51812).
Assay [3] has as its target Cyclin-dependent kinase 16 (Homo sapiens) (UniProt Q00536).
Assay [4] has as its target T1, Calcium/calmodulin-dependent protein kinase type IV (Homo sapiens) (UniProt Q16566).
T1 sequence (whole entry): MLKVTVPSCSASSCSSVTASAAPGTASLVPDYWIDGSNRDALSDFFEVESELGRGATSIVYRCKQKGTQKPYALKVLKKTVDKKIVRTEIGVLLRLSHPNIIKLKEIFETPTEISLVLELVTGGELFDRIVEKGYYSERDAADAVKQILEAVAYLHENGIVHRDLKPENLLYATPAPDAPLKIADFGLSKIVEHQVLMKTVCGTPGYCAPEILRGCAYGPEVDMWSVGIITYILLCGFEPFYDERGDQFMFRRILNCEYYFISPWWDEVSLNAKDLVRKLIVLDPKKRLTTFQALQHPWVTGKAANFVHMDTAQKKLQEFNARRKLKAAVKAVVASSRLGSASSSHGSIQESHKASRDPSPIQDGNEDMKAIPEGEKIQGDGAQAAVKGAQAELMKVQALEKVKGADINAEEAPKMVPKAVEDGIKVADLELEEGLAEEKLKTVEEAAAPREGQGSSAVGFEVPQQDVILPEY

The target in assay [5] is Calcium/calmodulin-dependent protein kinase kinase 2 (Homo sapiens, UniProt Q96RR4).
The target of assay [6] is Mitogen-activated protein kinase 3 (Homo sapiens, UniProt P27361).
In assay [7] the target is T2, Serine/threonine-protein kinase VRK3 (Homo sapiens) (UniProt Q8IV63).
T2 sequence (whole entry): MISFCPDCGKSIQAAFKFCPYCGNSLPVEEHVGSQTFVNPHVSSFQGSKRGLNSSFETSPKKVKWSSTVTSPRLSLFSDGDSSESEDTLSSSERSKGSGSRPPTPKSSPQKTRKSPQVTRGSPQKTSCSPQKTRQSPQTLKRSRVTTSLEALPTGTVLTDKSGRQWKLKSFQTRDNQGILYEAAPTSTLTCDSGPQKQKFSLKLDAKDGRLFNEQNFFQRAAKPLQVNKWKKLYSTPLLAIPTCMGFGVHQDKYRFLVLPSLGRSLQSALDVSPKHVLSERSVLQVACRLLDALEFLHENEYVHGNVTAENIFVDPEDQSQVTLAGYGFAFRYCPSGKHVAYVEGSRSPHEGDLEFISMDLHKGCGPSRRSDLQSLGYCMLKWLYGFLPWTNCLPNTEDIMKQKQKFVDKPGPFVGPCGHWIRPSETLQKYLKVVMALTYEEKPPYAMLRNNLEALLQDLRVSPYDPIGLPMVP

Assay [8] has as its target 5'-AMP-activated protein kinase catalytic subunit alpha-2 (Homo sapiens) (UniProt P54646).
The target in assay [9] is T3, Dual specificity mitogen-activated protein kinase kinase 6 (Homo sapiens) (UniProt P52564).
T3 sequence (whole entry): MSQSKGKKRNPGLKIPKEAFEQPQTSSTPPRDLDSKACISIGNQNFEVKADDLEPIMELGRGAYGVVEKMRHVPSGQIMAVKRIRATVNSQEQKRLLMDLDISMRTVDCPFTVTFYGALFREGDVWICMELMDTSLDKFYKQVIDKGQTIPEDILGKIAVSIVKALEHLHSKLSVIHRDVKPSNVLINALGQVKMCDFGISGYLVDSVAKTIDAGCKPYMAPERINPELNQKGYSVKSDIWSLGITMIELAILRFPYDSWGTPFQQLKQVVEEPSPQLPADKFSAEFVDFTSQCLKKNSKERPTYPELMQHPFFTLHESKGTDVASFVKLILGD

The target in assay [10] is Serine/threonine-protein kinase 38 (Homo sapiens) (UniProt Q15208).
Assay [11] concerns the target Casein kinase I isoform gamma-3 (Homo sapiens) (UniProt Q9Y6M4).
Assay [12] addresses Serine/threonine-protein kinase 25 (Homo sapiens) (UniProt O00506).
The target of assay [13] is Death-associated protein kinase 3 (Homo sapiens) (UniProt O43293).
Assay [14] addresses Calcium/calmodulin-dependent protein kinase type 1G (Homo sapiens) (UniProt Q96NX5).
For assay [15], the target named is Serine/threonine-protein kinase PLK1 (Homo sapiens) (UniProt P53350).
Assay [16] has as its target Calcium/calmodulin-dependent protein kinase type 1D (Homo sapiens) (UniProt Q8IU85).
The target of assay [17] is Serine/threonine-protein kinase RIO2 (Homo sapiens) (UniProt Q9BVS4).
Assay [18] concerns the target Dual specificity mitogen-activated protein kinase kinase 2 (Homo sapiens, UniProt P36507).
The target of assay [19] is Serine/threonine-protein kinase 26 (Homo sapiens) (UniProt Q9P289).
The target in assay [20] is Calcium/calmodulin-dependent protein kinase type II subunit delta (Homo sapiens) (UniProt Q13557).
In assay [21] the target is T4, Lymphokine-activated killer T-cell-originated protein kinase (Homo sapiens) (UniProt Q96KB5).
T4 sequence (whole entry): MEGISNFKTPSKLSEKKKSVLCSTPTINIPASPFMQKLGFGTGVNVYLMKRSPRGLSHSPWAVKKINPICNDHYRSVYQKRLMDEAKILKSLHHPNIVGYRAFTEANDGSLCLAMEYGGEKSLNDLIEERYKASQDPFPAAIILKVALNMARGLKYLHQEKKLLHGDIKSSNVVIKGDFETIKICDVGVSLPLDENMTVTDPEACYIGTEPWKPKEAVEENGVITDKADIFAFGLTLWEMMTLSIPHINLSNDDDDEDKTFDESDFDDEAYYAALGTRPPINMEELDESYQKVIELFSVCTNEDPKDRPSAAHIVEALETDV

The structures appear in SMILES notation.

Chain of Mitogen-activated protein kinase 3 (P27361 whole entry): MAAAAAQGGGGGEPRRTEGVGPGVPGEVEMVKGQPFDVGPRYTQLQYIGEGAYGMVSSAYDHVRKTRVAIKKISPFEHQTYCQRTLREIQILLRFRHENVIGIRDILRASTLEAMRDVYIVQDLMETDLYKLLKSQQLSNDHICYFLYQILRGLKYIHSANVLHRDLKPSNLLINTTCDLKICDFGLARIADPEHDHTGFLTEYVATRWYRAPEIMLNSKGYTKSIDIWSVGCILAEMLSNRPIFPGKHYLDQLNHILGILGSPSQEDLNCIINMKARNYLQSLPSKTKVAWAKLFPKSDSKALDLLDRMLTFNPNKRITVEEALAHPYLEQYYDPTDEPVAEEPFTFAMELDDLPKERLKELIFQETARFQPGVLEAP
Chain of Serine/threonine-protein kinase Nek6 (Homo sapiens) (Q9HC98 whole entry): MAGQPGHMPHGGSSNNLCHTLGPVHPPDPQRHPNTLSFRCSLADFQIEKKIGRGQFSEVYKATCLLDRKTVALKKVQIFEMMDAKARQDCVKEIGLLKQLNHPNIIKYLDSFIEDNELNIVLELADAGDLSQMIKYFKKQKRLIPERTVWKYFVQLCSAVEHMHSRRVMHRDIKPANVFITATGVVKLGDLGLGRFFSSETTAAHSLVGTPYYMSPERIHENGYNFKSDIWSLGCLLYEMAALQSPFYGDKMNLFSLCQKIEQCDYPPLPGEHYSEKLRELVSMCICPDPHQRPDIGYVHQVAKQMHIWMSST
Chain of Casein kinase I isoform gamma-3 (Homo sapiens) (Q9Y6M4 whole entry, looked up, canonical isoform): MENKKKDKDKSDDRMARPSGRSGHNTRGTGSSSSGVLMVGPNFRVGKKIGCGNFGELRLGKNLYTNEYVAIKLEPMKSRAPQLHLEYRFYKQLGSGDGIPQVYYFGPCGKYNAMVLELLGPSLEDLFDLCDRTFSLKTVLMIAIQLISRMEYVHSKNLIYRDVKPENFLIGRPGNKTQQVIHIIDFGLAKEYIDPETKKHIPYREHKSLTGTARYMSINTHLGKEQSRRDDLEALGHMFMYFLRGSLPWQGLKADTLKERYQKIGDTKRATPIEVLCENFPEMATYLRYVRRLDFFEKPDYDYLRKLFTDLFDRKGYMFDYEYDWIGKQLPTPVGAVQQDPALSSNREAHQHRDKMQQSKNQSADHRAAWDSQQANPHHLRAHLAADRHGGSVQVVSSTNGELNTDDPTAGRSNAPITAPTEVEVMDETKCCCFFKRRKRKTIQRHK
Chain of Serine/threonine-protein kinase PLK1 (Homo sapiens) (P53350 whole entry): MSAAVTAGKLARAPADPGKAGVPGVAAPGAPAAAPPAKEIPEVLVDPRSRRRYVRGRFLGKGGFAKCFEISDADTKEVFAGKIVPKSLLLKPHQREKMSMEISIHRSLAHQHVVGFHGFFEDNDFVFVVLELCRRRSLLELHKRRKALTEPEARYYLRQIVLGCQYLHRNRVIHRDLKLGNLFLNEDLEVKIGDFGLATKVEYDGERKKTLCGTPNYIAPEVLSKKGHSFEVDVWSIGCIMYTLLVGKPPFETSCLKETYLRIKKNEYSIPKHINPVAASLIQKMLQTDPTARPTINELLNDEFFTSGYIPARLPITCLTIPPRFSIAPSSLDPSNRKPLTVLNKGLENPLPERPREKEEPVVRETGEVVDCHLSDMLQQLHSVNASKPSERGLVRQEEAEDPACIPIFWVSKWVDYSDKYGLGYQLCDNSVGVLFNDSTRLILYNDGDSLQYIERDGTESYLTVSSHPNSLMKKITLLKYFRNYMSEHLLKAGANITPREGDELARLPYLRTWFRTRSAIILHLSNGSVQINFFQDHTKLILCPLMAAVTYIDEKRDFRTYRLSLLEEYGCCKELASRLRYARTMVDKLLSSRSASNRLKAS
Chain of Death-associated protein kinase 3 (Homo sapiens) (O43293 whole entry, looked up): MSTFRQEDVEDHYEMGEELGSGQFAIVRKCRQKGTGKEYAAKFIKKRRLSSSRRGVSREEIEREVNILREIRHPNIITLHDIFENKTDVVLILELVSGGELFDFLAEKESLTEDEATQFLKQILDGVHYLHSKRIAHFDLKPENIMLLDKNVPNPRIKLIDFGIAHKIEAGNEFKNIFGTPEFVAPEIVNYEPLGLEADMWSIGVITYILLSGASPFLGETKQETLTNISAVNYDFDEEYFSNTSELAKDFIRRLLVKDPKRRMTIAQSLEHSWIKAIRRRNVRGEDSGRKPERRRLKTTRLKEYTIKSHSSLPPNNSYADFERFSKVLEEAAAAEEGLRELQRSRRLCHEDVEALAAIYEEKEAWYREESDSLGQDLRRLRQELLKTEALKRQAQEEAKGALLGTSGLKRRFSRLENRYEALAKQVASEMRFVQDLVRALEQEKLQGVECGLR
Chain of Serine/threonine-protein kinase RIO2 (Homo sapiens) (Q9BVS4 whole entry, looked up): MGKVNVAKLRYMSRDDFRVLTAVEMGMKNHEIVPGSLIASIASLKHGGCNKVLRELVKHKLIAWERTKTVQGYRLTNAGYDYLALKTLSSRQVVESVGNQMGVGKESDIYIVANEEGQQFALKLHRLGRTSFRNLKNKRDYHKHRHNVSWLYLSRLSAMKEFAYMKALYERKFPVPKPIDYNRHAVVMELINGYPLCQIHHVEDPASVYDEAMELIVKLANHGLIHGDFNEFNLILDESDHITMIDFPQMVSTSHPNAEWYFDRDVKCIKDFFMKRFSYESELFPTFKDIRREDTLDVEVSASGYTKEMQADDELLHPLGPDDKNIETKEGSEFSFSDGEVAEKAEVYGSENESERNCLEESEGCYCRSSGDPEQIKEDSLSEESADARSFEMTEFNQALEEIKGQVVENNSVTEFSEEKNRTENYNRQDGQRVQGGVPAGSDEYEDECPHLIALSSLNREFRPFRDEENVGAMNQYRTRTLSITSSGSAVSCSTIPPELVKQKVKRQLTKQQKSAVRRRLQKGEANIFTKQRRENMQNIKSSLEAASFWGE
Chain of Calcium/calmodulin-dependent protein kinase type II subunit delta (Homo sapiens) (Q13557 whole entry): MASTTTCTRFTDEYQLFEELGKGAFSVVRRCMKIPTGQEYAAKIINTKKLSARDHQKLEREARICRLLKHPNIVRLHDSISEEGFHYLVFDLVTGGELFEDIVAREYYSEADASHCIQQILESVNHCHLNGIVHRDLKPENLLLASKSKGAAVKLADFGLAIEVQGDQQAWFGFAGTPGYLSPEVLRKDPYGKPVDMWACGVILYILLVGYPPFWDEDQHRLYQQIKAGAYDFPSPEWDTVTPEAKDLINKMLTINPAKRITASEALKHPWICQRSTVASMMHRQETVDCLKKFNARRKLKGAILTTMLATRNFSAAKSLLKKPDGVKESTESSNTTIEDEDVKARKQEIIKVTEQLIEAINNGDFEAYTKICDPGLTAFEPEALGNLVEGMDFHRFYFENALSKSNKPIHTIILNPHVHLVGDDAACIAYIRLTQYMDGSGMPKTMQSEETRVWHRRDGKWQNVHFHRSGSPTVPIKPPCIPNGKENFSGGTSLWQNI
Chain of Cyclin-dependent kinase 16 (Homo sapiens) (Q00536 whole entry): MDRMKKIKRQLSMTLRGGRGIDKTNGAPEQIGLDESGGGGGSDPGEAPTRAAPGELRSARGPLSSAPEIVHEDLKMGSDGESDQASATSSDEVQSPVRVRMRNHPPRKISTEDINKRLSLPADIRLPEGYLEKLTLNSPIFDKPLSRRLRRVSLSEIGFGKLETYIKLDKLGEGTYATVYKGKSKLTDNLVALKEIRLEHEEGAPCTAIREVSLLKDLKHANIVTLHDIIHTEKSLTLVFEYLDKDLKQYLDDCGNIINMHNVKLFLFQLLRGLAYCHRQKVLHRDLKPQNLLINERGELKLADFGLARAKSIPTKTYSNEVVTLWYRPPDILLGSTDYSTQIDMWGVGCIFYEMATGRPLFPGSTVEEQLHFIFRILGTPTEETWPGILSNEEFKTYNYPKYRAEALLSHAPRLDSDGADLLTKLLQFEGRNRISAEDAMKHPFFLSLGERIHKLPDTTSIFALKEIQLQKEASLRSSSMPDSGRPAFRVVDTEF
Chain of Ribosomal protein S6 kinase alpha-3 (Homo sapiens) (P51812 whole entry): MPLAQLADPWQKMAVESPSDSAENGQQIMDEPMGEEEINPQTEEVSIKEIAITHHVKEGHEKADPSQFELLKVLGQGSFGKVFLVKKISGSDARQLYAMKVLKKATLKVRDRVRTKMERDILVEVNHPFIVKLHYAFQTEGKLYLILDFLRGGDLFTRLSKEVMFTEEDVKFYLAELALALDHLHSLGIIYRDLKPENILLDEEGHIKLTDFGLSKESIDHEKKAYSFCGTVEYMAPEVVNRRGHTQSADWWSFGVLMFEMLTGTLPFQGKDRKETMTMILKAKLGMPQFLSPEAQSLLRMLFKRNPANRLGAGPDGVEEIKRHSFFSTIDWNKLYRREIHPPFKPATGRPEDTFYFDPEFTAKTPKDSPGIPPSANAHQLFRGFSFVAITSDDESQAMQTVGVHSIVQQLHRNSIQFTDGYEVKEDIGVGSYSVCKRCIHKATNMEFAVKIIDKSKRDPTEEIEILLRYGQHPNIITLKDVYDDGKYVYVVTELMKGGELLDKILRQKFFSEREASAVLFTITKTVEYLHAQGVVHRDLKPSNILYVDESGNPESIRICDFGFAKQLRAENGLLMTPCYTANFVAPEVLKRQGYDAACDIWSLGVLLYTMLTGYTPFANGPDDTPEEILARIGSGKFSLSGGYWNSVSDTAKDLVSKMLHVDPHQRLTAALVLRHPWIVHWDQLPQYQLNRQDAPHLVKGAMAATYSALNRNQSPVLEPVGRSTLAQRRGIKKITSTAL
Chain of Calcium/calmodulin-dependent protein kinase type 1D (Homo sapiens) (Q8IU85 whole entry, looked up): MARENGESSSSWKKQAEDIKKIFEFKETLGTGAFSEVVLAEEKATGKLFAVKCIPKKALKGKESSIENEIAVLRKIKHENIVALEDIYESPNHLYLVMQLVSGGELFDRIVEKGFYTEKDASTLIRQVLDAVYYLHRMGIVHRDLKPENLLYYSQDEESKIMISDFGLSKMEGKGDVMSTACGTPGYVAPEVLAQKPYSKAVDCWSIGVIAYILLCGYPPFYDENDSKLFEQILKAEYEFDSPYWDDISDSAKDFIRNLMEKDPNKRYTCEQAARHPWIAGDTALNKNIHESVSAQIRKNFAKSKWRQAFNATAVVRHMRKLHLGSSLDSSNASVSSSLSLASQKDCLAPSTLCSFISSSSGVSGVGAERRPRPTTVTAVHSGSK

What is called ΔTm is the shift of the melting midpoint relative to a reference. As to `N=C(N)NCCNS(=O)(=O)c1cccc2cnccc12`, the ΔTm is 0.2 °C in assay [1]; 0.4 °C in assay [2]; -0.7 °C in assay [3]; -0.3 °C in assay [4]; -0.1 °C in assay [5]; 0.1 °C in assay [6]. Besides, the ΔTm in assay [7] was 0.3 °C; in assay [8], 0.5 °C; in [9], -0.1 °C; in assay [10], 0.1 °C; in assay [11], 0.3 °C; in assay [12], -0.4 °C. In addition, the thermal shift (ΔTm) in [13] was 2 °C; in [14], -0.4 °C; in assay [15] it was 0.3 °C; in assay [16], 0 °C; in assay [17] it was 1.5 °C; in assay [18] it was -0.6 °C. Further, the thermal shift (ΔTm) in [19] worked out at 0.1 °C; in assay [20] it was 0.1 °C; in assay [21], 0.6 °C.

As to `O=C1Nc2ccc(S(=O)(=O)O)cc2/C1=C1/Nc2ccccc2/C1=N\O`, the ΔTm in assay [1] worked out at 0.8 °C; in assay [2], 5.6 °C; in assay [3], 5.9 °C; in assay [4], 1.3 °C; in [5], 4.9 °C; in assay [6], 2.4 °C. For the same compound, the ΔTm was found to be 1.9 °C in assay [7]; 5.5 °C in [8]; 3.5 °C in assay [9]; 1.9 °C in [10]; 3.7 °C in assay [11]; 2.2 °C in [12]. Moreover, the ΔTm in [13] stood at 6.4 °C; in assay [14], 2 °C; in assay [15], 1.1 °C; in assay [16], 0.7 °C; in [17], 1.2 °C; in [18], 4.9 °C. Besides, the values for the ΔTm in assay [19], in [20] and in assay [21] were 0.5 °C, 1.2 °C and 0.4 °C, respectively.

On to `N#CCCc1ccc2c(c1)-c1[nH]c3ccc([N+](=O)[O-])cc3c1CC(=O)N2` [ALSTERPAULLONE 2], for which the ΔTm is 0.8 °C in assay [1]; 4.1 °C in assay [2]; 8.7 °C in [3]; 0.4 °C in assay [4]; 2.3 °C in assay [5]; 2.2 °C in [6]. Also, the ΔTm amounted to 0.6 °C in [7]; 1 °C in assay [8]; 0.8 °C in assay [9]; 3.3 °C in assay [10]; 1.6 °C in assay [11]; 4.2 °C in assay [12]. Besides, the ΔTm in assay [13] was found to be 1.7 °C; in [14], 1.6 °C; in assay [15], 0.4 °C; in [16] it was 0.6 °C; in assay [17] it was 1.2 °C; in assay [18] it was 0.9 °C. For the same compound, the values for the ΔTm in assay [19], in assay [20] and in [21] were 2.8 °C, -0.3 °C and 0 °C, respectively.

As for `COc1ccc(CNc2nc(N(CCO)CCO)nc3c2ncn3C(C)C)cc1`, the ΔTm was 0.3 °C in assay [1]; 1.3 °C in [2]; -0.3 °C in [3]; 0.4 °C in assay [4]; 1.2 °C in assay [5]; 0.2 °C in [6]. The shift in melting temperature (ΔTm) in assay [7] was determined as 0.4 °C; in assay [8] it was 0.6 °C; in assay [9], 0.1 °C; in [10], 0.4 °C; in assay [11], 1.7 °C; in assay [12], 1.5 °C. Moreover, the ΔTm in [13] turned out to be 0.7 °C; in [14] it was 0.6 °C; in assay [15] it was 0.9 °C; in [16] it was 0.3 °C; in [17], 0.3 °C; in assay [18], 0.1 °C. Besides, the ΔTm in [19] is 1 °C; in [20], -0.3 °C; in assay [21], 0.7 °C.

As to `O=c1cc(N2CCOCC2)oc2c1ccc1ccccc12`, the ΔTm is -0.2 °C in assay [1]; 0.3 °C in assay [2]; -0.4 °C in [3]; -0.1 °C in assay [4]; -0.3 °C in assay [5]; 0.2 °C in [6]. Besides, the ΔTm in assay [7] was found to be 1 °C; in [8] it was 0.4 °C; in assay [9], 0 °C; in assay [10] it was 0.1 °C; in [11], 0 °C; in [12], 0.6 °C. Further, the ΔTm in assay [13] was determined as 1.8 °C; in assay [14] it was 0.1 °C; in [15], 2.3 °C; in assay [16], 0 °C; in assay [17], 0.4 °C; in assay [18], 0.1 °C. The ΔTm is 0.2 °C in assay [19], -0.2 °C in assay [20] and 0.7 °C in [21].

`COc1ccc2c(c[n+](C)c3c4cc5c(cc4ccc23)OCO5)c1OC` [CHELERYTHRINE CHLORIDE]: the ΔTm is -2.5 °C in assay [1]; -1.3 °C in assay [2]; -0.2 °C in [3]; -0.6 °C in assay [4]; -1.6 °C in assay [5]; -0.5 °C in assay [6]. Moreover, the ΔTm was -0.6 °C in [7]; -1.3 °C in assay [8]; -6.6 °C in assay [9]; 0.1 °C in assay [10]; 0.2 °C in assay [11]; -0.3 °C in assay [12]. Further, the ΔTm in assay [13] was 0.1 °C; in assay [14] it was -1.1 °C; in assay [15], 0 °C; in [16] it was -5.3 °C; in assay [17], -0.4 °C; in assay [18], -0.9 °C. In addition, the figures for the ΔTm in assay [19], in assay [20] and in assay [21] were -4.2 °C, -0.8 °C and -0.4 °C, respectively.

In the case of `O=C1Nc2ccccc2/C1=C/c1cnc[nH]1`, the ΔTm in assay [1] was determined as 0 °C; in assay [2], 5.8 °C; in assay [3] it was 4.7 °C; in [4], 0.7 °C; in assay [5] it was 3.1 °C; in assay [6], 2.1 °C. Besides, the ΔTm was determined as 0.1 °C in [7]; 3.3 °C in assay [8]; 4.7 °C in assay [9]; 2.9 °C in assay [10]; 1.5 °C in assay [11]; 6.3 °C in assay [12]. For the same compound, the ΔTm in assay [13] is 1.6 °C; in assay [14] it was 1.2 °C; in assay [15] it was 1.3 °C; in assay [16] it was 0.7 °C; in assay [17], 1.3 °C; in assay [18], 2 °C. The ΔTm is 4.5 °C in [19], -0.3 °C in assay [20] and 0.1 °C in assay [21].
